The results in this text go back to ChEMBL document CHEMBL1152245 (Bioorg Med Chem Lett, 2008).

Holding throughout (format): functional
The target in assay [1] is T1, Muscarinic acetylcholine receptor M3 (Homo sapiens, UniProt P20309). Nature of the assay: Agonist activity at muscarinic M3 receptor.
Target sequence in this assay (P20309 whole entry): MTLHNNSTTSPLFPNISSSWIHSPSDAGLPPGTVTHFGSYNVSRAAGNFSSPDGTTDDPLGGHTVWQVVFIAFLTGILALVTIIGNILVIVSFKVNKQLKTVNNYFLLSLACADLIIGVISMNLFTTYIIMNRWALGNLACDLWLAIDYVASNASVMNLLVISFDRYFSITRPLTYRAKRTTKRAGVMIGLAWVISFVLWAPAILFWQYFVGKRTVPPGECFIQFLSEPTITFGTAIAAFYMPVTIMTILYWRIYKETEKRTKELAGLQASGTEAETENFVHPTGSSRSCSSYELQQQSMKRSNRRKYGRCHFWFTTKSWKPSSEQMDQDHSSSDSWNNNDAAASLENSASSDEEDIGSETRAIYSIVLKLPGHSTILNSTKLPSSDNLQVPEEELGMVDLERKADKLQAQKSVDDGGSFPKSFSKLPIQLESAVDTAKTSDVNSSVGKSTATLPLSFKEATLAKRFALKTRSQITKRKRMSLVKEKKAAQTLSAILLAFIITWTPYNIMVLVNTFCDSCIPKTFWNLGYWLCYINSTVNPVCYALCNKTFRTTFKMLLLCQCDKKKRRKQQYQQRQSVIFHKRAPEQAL
Assay [2] deals with T2, Muscarinic acetylcholine receptor M1 (Homo sapiens, UniProt P11229).
T2 sequence (P11229 whole entry): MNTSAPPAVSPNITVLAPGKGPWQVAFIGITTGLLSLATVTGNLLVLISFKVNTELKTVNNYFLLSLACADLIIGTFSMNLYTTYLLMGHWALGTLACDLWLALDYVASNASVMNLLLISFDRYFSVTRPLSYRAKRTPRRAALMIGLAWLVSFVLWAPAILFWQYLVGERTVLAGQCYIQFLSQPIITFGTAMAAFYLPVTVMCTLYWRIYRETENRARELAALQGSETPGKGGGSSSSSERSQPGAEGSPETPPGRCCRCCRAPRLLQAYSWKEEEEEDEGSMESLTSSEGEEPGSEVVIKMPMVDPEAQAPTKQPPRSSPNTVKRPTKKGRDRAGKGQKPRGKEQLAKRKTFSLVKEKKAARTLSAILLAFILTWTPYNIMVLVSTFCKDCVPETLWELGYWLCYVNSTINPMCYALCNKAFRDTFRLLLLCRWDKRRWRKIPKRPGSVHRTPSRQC
As to the kind of experiment: Agonist activity at muscarinic M1 receptor.

Assay [3] deals with T3, Muscarinic acetylcholine receptor M2 (Homo sapiens, UniProt P08172).
T3 sequence (P08172 whole entry): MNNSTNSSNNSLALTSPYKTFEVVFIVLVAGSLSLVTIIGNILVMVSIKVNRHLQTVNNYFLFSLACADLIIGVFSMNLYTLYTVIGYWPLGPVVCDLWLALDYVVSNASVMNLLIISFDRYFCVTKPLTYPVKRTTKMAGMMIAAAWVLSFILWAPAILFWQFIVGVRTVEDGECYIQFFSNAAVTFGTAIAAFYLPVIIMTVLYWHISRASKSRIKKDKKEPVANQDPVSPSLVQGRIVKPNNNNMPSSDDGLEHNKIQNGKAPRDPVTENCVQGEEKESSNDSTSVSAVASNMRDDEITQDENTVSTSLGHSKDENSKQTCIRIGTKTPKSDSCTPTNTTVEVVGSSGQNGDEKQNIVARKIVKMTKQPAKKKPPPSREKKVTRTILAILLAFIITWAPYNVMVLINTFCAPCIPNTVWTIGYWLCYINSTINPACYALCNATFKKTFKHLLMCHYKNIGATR
As to the kind of experiment: Agonist activity at muscarinic M2 receptor.

In assay [4] the target is T4, Muscarinic acetylcholine receptor M1 (Homo sapiens) (UniProt P11229).
T4 sequence (whole entry): T2 sequence (P11229 whole entry)
Nature of the assay: Agonist activity at muscarinic M1 receptor relative to carbachol.

In assay [5] the target is T5, Muscarinic acetylcholine receptor M4 (Homo sapiens, UniProt P08173).
T5 sequence (P08173 whole entry): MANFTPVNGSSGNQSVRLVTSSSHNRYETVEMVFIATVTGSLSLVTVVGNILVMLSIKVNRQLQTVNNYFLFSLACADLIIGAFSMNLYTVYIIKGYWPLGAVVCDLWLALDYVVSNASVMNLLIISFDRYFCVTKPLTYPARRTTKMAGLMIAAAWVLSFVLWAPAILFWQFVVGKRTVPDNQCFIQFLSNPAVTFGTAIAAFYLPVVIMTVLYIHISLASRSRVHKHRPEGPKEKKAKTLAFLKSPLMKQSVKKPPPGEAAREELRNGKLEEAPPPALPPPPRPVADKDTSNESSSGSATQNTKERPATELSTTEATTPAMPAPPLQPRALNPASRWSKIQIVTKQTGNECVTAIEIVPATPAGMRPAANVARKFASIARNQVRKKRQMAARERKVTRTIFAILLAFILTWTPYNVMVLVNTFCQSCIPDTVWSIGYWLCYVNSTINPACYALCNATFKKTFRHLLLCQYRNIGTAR
As to the kind of experiment: Agonist activity at muscarinic M4 receptor.

The target of assay [6] is T6, Muscarinic acetylcholine receptor M4 (Homo sapiens) (UniProt P08173).
T6 sequence (whole entry): T5 sequence (P08173 whole entry)
As to the kind of experiment: Agonist activity at muscarinic M4 receptor at up to 30 uM.

The target of assay [7] is T7, Muscarinic acetylcholine receptor M2 (Homo sapiens) (UniProt P08172).
T7 sequence (whole entry): T3 sequence (P08172 whole entry)
Nature of the assay: Agonist activity at muscarinic M2 receptor at up to 30 uM.

Assay [8] deals with T1, Muscarinic acetylcholine receptor M3. As to the kind of experiment: Agonist activity at muscarinic M3 receptor at up to 30 uM.
Target sequence in this assay (P20309 whole entry, looked up): as the sequence (P20309 whole entry) above
Assay [9] concerns the target T8, Muscarinic acetylcholine receptor M5 (Homo sapiens) (UniProt P08912).
T8 sequence (whole entry): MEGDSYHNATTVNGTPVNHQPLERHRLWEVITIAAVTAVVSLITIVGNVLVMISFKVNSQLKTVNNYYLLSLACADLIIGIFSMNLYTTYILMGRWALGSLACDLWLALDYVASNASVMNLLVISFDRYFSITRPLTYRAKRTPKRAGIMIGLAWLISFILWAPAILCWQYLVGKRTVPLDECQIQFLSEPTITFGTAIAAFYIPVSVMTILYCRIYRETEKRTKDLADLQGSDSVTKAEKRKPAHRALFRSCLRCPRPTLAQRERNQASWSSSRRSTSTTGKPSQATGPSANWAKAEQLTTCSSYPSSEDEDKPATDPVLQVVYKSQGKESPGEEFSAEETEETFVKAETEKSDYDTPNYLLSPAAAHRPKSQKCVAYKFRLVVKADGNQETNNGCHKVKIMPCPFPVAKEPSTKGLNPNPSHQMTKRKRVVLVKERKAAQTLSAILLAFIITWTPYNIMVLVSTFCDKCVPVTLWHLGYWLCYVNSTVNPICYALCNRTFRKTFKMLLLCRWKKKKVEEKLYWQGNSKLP
As to the kind of experiment: Agonist activity at muscarinic M5 receptor at up to 30 uM.

In assay [10] the target is T6, Muscarinic acetylcholine receptor M4 (Homo sapiens). As to the kind of experiment: Agonist activity at muscarinic M4 receptor relative to carbachol.
Assay [11] deals with T9, Muscarinic acetylcholine receptor M5 (Homo sapiens, UniProt P08912).
T9 sequence (P08912 whole entry): T8 sequence (whole entry)
Nature of the assay: Agonist activity at muscarinic M5 receptor.

Assay [12] addresses T8, Muscarinic acetylcholine receptor M5 (Homo sapiens). As to the kind of experiment: Agonist activity at muscarinic M5 receptor relative to carbachol.
Assay [13] concerns the target T7, Muscarinic acetylcholine receptor M2 (Homo sapiens). As to the kind of experiment: Agonist activity at muscarinic M2 receptor relative to carbachol.
For the next assay, the target named is D(2) dopamine receptor (Homo sapiens, UniProt P14416). Nature of the assay: Antagonist activity at dopamine D2 receptor.

The structures appear in SMILES notation. Calls of active or inactive are those of the source. The calls are words filed in the database; no cut-off is given here. Some results are limits rather than exact numbers.

D(2) dopamine receptor, sequence (P14416 whole entry): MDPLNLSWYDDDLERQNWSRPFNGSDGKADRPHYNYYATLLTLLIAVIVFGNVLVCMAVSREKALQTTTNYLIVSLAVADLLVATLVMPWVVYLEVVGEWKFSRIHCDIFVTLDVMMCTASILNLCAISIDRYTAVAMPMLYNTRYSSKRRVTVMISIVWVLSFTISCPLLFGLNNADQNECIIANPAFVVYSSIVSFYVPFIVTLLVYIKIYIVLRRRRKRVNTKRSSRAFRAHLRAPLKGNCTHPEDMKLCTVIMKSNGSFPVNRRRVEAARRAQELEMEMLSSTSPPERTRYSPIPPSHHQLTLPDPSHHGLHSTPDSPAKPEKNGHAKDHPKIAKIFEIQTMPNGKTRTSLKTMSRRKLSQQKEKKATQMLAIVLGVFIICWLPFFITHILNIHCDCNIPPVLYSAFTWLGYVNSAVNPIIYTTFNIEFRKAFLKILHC

For `O=C(Nc1cccc(SC(F)(F)F)c1)N1CCC(N2CCC(n3c(=O)[nH]c4ccccc43)CC2)CC1`, the EC50 (in general, the concentration giving half of the maximal effect) in assay [1] was greater than 30 µM; in [2], 6.5 µM; in assay [3], greater than 30 µM; in [5], greater than 30 µM. In assay [4], this compound yielded an Activity of 85%.

For the compound `O=c1[nH]c2ccccc2n1C1CCN(C2CCN(S(=O)(=O)c3ccccc3)CC2)CC1`, in assay [2], the EC50 stood at 1.4 µM. In addition, the Activity in [4] worked out at 82%.

For `Cc1ccccc1C(=O)N1CCC(N2CCC(n3c(=O)[nH]c4ccccc43)CC2)CC1`, the outcome in assay [6], in [7], in assay [8] and in assay [9] was inactive. This compound gave an EC50 in [2] of 0.88 µM. This compound displayed an Activity in [4] of 60%.

On to `O=c1[nH]c2cc(Cl)ccc2n1C1CCN(C2CCN(S(=O)(=O)c3ccccc3)CC2)CC1`, for which the EC50 in assay [1] is greater than 30 µM; in assay [2] it was 4.1 µM; in assay [3], greater than 30 µM; in assay [5] it was greater than 30 µM. The compound further registered an Activity in assay [4] of 82%.

As for `NC(=O)OCCN1CCC(N2CCC(n3c(=O)[nH]c4ccccc43)CC2)CC1`, the Activity in [10] is 96.9%; in assay [12] it was 50.8%; in assay [13], 80.6%. The EC50 in assay [11] stood at 0.0343 µM; in [3], 0.0119 µM; in [5] it was 0.0091 µM.

Turning to `O=C(c1ccccc1C(F)(F)F)N1CCC(N2CCC(n3c(=O)[nH]c4ccccc43)CC2)CC1`, the result in assay [6], in assay [7], in assay [8] and in assay [9] was inactive. Moreover, the EC50 in [2] came to 0.91 µM. This compound also returned an Activity in assay [4] of 32%.

On to `O=c1[nH]c2cc(Br)ccc2n1C1CCN(C2CCN(S(=O)(=O)c3ccccc3)CC2)CC1`, for which the EC50 was greater than 30 µM in [1], 4.4 µM in assay [2], greater than 30 µM in [3] and greater than 30 µM in [5]. For the same compound, in assay [4], the Activity amounted to 81%.

For `Cc1cccc(C(=O)N2CCC(N3CCC(n4c(=O)[nH]c5ccccc54)CC3)CC2)c1`, the outcome in assay [6], in assay [7], in [8] and in assay [9] was inactive. Also, in assay [2], the midpoint of the response, the EC50, lay at 0.51 µM. Moreover, the Activity in assay [4] was 53%.

For `O=C(Nc1cccc(SC(F)(F)F)c1)N1CCC(N2CCC(n3c(=O)[nH]c4c(F)cccc43)CC2)CC1`, the EC50 in assay [1] was greater than 30 µM; in [2], greater than 10 µM; in [3] it was greater than 30 µM; in assay [5] it was greater than 30 µM. In assay [4], this compound had an Activity of 46%.

Take `O=C(Nc1cccc(SC(F)(F)F)c1)N1CCC(N2CCC(n3c(=O)[nH]c4cc(Cl)ccc43)CC2)CC1`: the EC50 in assay [1] is greater than 30 µM; in assay [2], 3.6 µM; in [3], greater than 30 µM; in [5] it was greater than 30 µM. The compound further came in with an Activity in assay [4] of 90%.

`O=c1[nH]c2cc(F)ccc2n1C1CCN(C2CCN(S(=O)(=O)c3ccccc3)CC2)CC1`: half-maximal inhibition on D(2) dopamine receptor (IC50) required 3.6 µM. Besides, the EC50 in [1] is greater than 30 µM; in [11], greater than 30 µM; in assay [2] it was 2.3 µM; in [3] it was greater than 30 µM; in [5], greater than 30 µM. In [4], the Activity came to 82%.

For the compound `O=c1[nH]c2ccc(F)cc2n1C1CCN(C2CCN(S(=O)(=O)c3ccccc3)CC2)CC1`, the IC50 – broadly, the midpoint of a concentration-inhibition curve – at D(2) dopamine receptor is greater than 10 µM. The EC50 was greater than 30 µM in [1]; greater than 30 µM in assay [11]; 3.3 µM in [2]; greater than 30 µM in [3]; greater than 30 µM in assay [5]. Further, in assay [4], the Activity is 76%.

Consider `O=C(c1cccc(Cl)c1)N1CCC(N2CCC(n3c(=O)[nH]c4ccccc43)CC2)CC1`, for which the result in [6], in assay [7], in assay [8] and in assay [9] was inactive. Besides, the EC50 in assay [2] was determined as 0.93 µM. Further, the Activity in assay [4] was found to be 21%.

Take `O=C(c1ccccc1C(F)(F)F)N1CCC(N2CCC(n3c(=O)[nH]c4cc(Cl)ccc43)CC2)CC1`: the result in assay [6], in assay [7], in assay [8] and in assay [9] was inactive. This compound also came in with an EC50 in assay [2] of 11.1 µM. The Activity in assay [4] was found to be 24%.

On D(2) dopamine receptor, `Cc1ccccc1CN1CCC(N2CCC(n3c(=O)[nH]c4ccccc43)CC2)CC1` registered an IC50 of 5.1 µM.

As to `Cc1ccccc1C(=O)N1CCC(N2CCC(n3c(=O)[nH]c4cc(Cl)ccc43)CC2)CC1`, the outcome in [6], in assay [7], in assay [8] and in [9] was inactive. Besides, the midpoint of the response in assay [2], the EC50, lay at 2.71 µM. In assay [4], this compound gave an Activity of 56%.

In the case of `Cc1cccc(C(=O)N2CCC(N3CCC(n4c(=O)[nH]c5cc(Cl)ccc54)CC3)CC2)c1`, the result in [6], in [7], in [8] and in assay [9] was inactive. For the same compound, in [2], the 50% effective concentration (EC50) stood at 2.11 µM. In [4], this compound returned an Activity of 50%.

Turning to `O=C(c1cccc(Cl)c1)N1CCC(N2CCC(n3c(=O)[nH]c4cc(Cl)ccc43)CC2)CC1`, the result in assay [6], in assay [7], in assay [8] and in assay [9] was inactive. In addition, the EC50 in assay [2] came to 7.11 µM. The Activity in assay [4] was 21%.

In the case of `O=c1[nH]c2c(F)cccc2n1C1CCN(C2CCN(S(=O)(=O)c3ccccc3)CC2)CC1`, the EC50 was greater than 30 µM in assay [1], 2.6 µM in assay [2], greater than 30 µM in assay [3] and greater than 30 µM in assay [5]. Besides, the Activity in assay [4] stood at 49%.

For `O=C(Nc1cccc(SC(F)(F)F)c1)N1CCC(N2CCC(n3c(=O)[nH]c4ccc(F)cc43)CC2)CC1`, the EC50 in assay [1] is greater than 30 µM; in assay [2], 9.6 µM; in assay [3], greater than 30 µM; in [5], greater than 30 µM. In [4], the Activity turned out to be 72%.

For `O=c1[nH]c2ccccc2n1C1CCN(C2CCN(Cc3ccccc3C(F)(F)F)CC2)CC1`, the Activity in assay [4] stood at 80%.
